Structures can show the parent of a compound that is named as a salt. Where two headings read alike, the source gives them in different places.
Experiments:
[1] = molecular target: T1, glycine binding site associated with the N-methyl-D-aspartate (NMDA) receptor complex (Rattus norvegicus, UniProt P35439); experiment: biochemical; parameters: species or system rat (male Wistar, cortex)
T1 construct: Cortices of male Wistar rats are dissected over ice; from tissue; host or cells: cerebral cortex of male Wistar rats, Triton X-100 treated washed membranes
Method: This procedure is a modification of the method described by Monahan et al.^1
1. Buffer A: 0.5M Tris maleate, pH 7.4 59.3 g Tris maleate bring to 0.5 l Adjust pH to 7.4 with 0.5M Tris base
2. Buffer B: 50 mM Tris maleate, pH 7.4 Dilute Buffer A 1:10 with distilled water, adjust pH with 50 mM Tris maleate (acid) or 50 mM Tris base.
3. […] Aliquots of 20 μl to the assay tube will give a final concentration of 10^-3 M.
4. […] Aliquots of 50 μl are added to yield a final assay concentration of 10 nM.
6. Triton-X 100, 10% (v/v). A stock solution of Triton-X 100, 10% can be prepared and stored in the refrigerator. Dilute 1.0 ml of Triton-X 100 to 10.0 ml with distilled water. On the day of the assay, the tissue homogenate (1:15 dilution) is preincubated with an aliquot of the 10% solution to give a final concentration of 0.04% (v/v).
Cortices of male Wistar rats are dissected over ice and homogenized in ice-cold 0.32M sucrose (1:15 w/v) for 30 seconds with a Tissumizer setting at 70. Three cortices are pooled for one preparation. The homogenate is centrifuged at 1,000 g for 10 minutes. The supernatant is centrifuged at 20,000 g for 20 minutes. Resuspend the pellet in 15 volumes of ice-cold distilled water (Tissumizer setting 70, 15 sec) and spin at 7,600 g for 20 minutes. Save the supernatant, swirl off the upper buffy layer of the pellet and add to the supernatant. Centrifuge the supernatant at 48,000 g for 20 minutes. Resuspend the pellet with 15 volumes of cold distilled water and centrifuge. Discard the supernatant and store the pellet at -70° C.
On the day of the assay, resuspend the pellet in 15 volumes ice-cold 50 mM Tris maleate, pH 7.4. Preincubate the homogenate with Triton-X in a final concentration of 0.04% (v/v) for 30 minutes at 37° C. with agitation. Centrifuge the suspension at 48,000 g for 20 minutes. Wash the pellet an additional 3 times by resuspension with cold buffer and centrifugation. The final pellet is resuspended in a volume 25 times the original net weight.
1. Prepare assay tubes in triplicate.
50 μl Buffer A, 0.5M Tris maleate, pH 7.4
or appropriate concentration of inhibitor
500 μl Tissue homogenate
2. Following the addition of the tissue, the tubes are incubated for 20 minutes in an ice-bath at 0°-4° C. Terminate the binding by centrifugation for 20 minutes. Return the tubes to ice. Aspirate and discard the supernatant. Carefully rinse the pellet twice with 1 ml ice-cold buffer, avoiding disruption of the pellet. Transfer the pellet to scintillation vials by vortexing the pellet with 2 ml of scintillation fluid, rinse the tubes twice with 2 ml and add an additional 4 ml of scintillation fluid.
3. […] IC50 values for the competing compound are calculated by log-probit analysis of the data.

[2] = molecular target: T2, NMDA associated strychnine-insensitive glycine modulatory site (Rattus norvegicus, UniProt P35439); experiment: biochemical; parameters: species or system rat (male Sprague Dawley, cortical tissue); settings: for EC50: 2.5 nM [3H]TCP, L-glutamic acid 10^-7 M, read-out: ENHANCEMENT OF [3H]TCP BINDING EC50
T2 construct: cortical tissue obtained from male Sprague Dawley rats; from tissue; host or cells: cortical tissue of male Sprague Dawley rats, crude synaptosomal homogenate, lysed and washed

[3] = Enhancement of step-down passive avoidance in rats; format: in vivo, rat (male Sprague Dawley); settings: ip, 30 min prior, 24 hrs after acquisition
Method: In this assay, rats step off a wooden platform and subsequently receive a low-level foot shock. After 24 hours, the rats are observed for their ability to acquire and remember a passive avoidance behavior, that is, to stay on the platform. Male Sprague Dawley rats (Charles River) weighing 275-325 g were used in the passive avoidance procedure. Following a 11/2 week acclimation to the vivarium (5 rats per cage) where food and water were available ad libitum, rats were transported to the laboratory on day 1 of testing and acclimated to the experimental area and the investigator. Rats were labeled (tails marked) and handled by the investigator, then gently placed on a wooden platform (14×10.5×3.5 cm) in the experimental chamber (30.5×25×27 cm.) The chamber is equipped with a single house light and white noise generator to mask extraneous sounds. Once the animal stepped off the platform (all 4 paws touching the grid floor where grids are equally spaced every 2 cm), it was picked up by the base of the tail and returned to the home cage and then to the vivarium. On day 2, rats were returned to the laboratory and again acclimated to the experimental area for 30 min. Rats were intraperitoneally administered vehicle or compounds 30 min. prior to testing in a dosage volume of 1 ml/kg. Then the rats were gently placed on the wooden platform and their latency (in sec.) to step-down was recorded. When all four paws touched the grid, a low level 0.28 mA electric shock was delivered for 3 sec. by means of a Coulbourn Instruments grid floor shocker. Rats were immediately removed from the experimental chamber to their home cage when the shock ceased. […] Fifteen minutes later, this procedure was repeated. Rats were then returned to the vivarium. […] The latencies of each drug group on day 3 (24 hrs. following acquisition) was compared to the latencies of the vehicle control group by the non-parametric Mann-Whitney U test.

[4] = T-maze reinforced alternation task in rats (scopolamine-induced deficit); format: in vivo, rat (male Wistar); settings: i.p.
Method: Male Wistar rats (Charles River) weighing 450-700 g were used in the T-maze procedure. Rats were housed (3 rats per cage) under standard laboratory conditions in the vivarium where food and water were available ad libitum. During training and testing, animals were transported to the dimly lit test room and acclimated for 30 min. The Lafayette Instruments T-maze consisted of a start box (30×20 cm), an alley way to the choice point (30×20 cm), a choice point area (25×25 cm), and two goal areas (30×20 cm) with a shock grid (grids every 11/2 cm) serving as the floor of the maze. Each session in the maze was controlled by a microprocessor.
Initially, animals were trained to greater than 70% choice accuracy in the maze for five consecutive days each week over a two week period. Following a 10 min. habituation to the maze, training commenced. All reinforced alternation sessions consisted of ten pseudo randomly paired trials. The first trial of each pair was the forced trial where the animal was forced to go to either the left or right goal box, since only one goal box door was open. The second trial was the choice trial where both goal box doors were open and the correct response was to enter the opposite goal to that entered on the previous forced run trial.
Each trial began when the rat was placed in the start box and allowed 15 sec. to enter the appropriate goal box. […] Following a 30 sec. intertrial interval (ITI), the next trial commenced. If during the choice trial, the rat entered the incorrect goal box (same goal entered during the forced trial), the guillotine door was closed and the rat received 5 electric shocks during the first 15 sec. of the 30 sec. ITI. All choices and latencies during the 10 paired trials were recorded by the computer controlled printer.
Animals which met criteria during training ([…]) were considered trained colony animals and were tested every other week. Testing was conducted over 3 consecutive days. Control sessions for baseline responding were conducted on days 1 and 2 so that the mean percentage of correct choices for each animal to qualify for drug testing was set at ≥70% correct choices.
The next time these animals were tested, they were administered pharmacological agents i.p. (at appropriate pretreatment times) in combination with scopolamine to measure effectiveness in reversing scopolamine-induced deficits in choice accuracy.
For statistical analysis, the means of each treatment group (drug+scopolamine) were compared to the mean of both the scopolamine alone group and the control group by the Dunnett's test.

NMDA receptor = experiment: Stimulation of [3H]TCP binding by NMDA in extensively washed rat cortical membranes; settings: glycine 1 μM added to NMDA
[5] = read-out: % OF MAXIMAL GLYCINE RESPONSE
[6] = read-out: % OF MAXIMAL GLYCINE RESPONSE, concentration 10 μM

SMILES | IC50 [1] [µM] | EC50 [2] [µM] | % Change from Control (median latency to step-down) ([3]; 10 mg/kg) | % Change from Control (median latency to step-down) ([3]; 20 mg/kg) | also measured
Cl.NCC(=O)Nn1cccc1 [2-Amino-N-1H-pyrrol-1-ylacetamide Hydrochloride] | 14.8 | 92 | +281% | +625% | Emax at 100 µM [2, 5]: 65%; % Change from Control (median latency to step-down) ([3]; 80 mg/kg): +512%
Cl.NCC(=O)Nn1cccc1Cl [2-Amino-N-(2-chloro-1H-pyrrol-1-yl)acetamide Hydrochloride] |  |  | +158% | +25% | % Change from Control (median latency to step-down) ([3]; 40 mg/kg): +133%
NCC(=O)Nn1cccc1C(=O)c1cccs1 [2-Amino-N-[2-(2-thienylcarbonyl)-1H-pyrrol-1-yl]acetamide Hydrochloride] | 6 | 0.38 |  |  | Emax at 10 µM [2, 5]: 78%
NCC(=O)Nn1cccc1C(=O)c1ccccc1Cl [2-amino-N-[2-(2-chloro-benzoyl)-1H-pyrrol-1-yl]-acetamide hydrochloride] | 22.5 | 3 |  |  | Emax at 10 µM [2, 5]: 56%
NCC(=O)Nn1cccc1C(=O)c1ccccc1F [2-amino-N-[2-(2-fluorobenzoyl)-1H-pyrrol-1-yl]acetamide hydrobromide hemihydrate] | 11.2 | 3.1 | +471% | +836% | Emax at 10 µM [2, 6]: 77%; Mean % of Correct Choice ([4]; with scopolamine, 1/20 mg/kg (scopolamine/drug)): 64%
COc1ccccc1C(=O)c1cccn1NC(=O)CN.Cl [2-amino-N-[2-(2-methoxy-benzoyl)-1H-pyrrol-1-yl]-acetamide hydrochloride] |  |  | +37% |  | % Change from Control (median latency to step-down) ([3]; 1.25 mg/kg): +237%; % Change from Control (median latency to step-down) ([3]; 5 mg/kg): +80%
NCC(=O)Nn1cccc1C(=O)c1ccccc1C(F)(F)F [2-amino-N-[2-(2-trifluoro-methyl)benzoyl)-1H-pyrrol-1-yl]acetamide hydrobromide] |  |  | +77% | +122% | % Change from Control (median latency to step-down) ([3]; 5 mg/kg): +900%; % Change from Control (median latency to step-down) ([3]; 40 mg/kg): +33%
NCC(=O)Nn1cccc1C(=O)c1cccc(F)c1.O=C(O)/C=C/C(=O)O [2-amino-N-[2-(3-fluorobenzoyl)-1H-pyrrol-1-yl]acetamide fumarate] | 4.8 | 0.6 | +343% | +257% | Emax at 10 µM [2, 6]: 76%; % Change from Control (median latency to step-down) ([3]; 5 mg/kg): +457%
COc1ccc(C(=O)c2cccn2NC(=O)CN)cc1 [2-amino-N-[2-(4-methoxybenzoyl)-1H-pyrrol-1-yl]acetamide] | 6.6 | 2 |  |  | Emax at 100 µM ([2]; read-out: % OF MAXIMAL GLYCINE RESPONSE, concentration 100 μM): 89%
NCC(=O)Nn1c(Cl)ccc1C(=O)c1ccccc1F [2-amino-N-[5-chloro-2-(2-fluorobenzoyl)-1H-pyrrol-1-yl]acetamide hydrobromide] | 6 | 1.7 |  |  | Emax at 30 µM ([2]; read-out: % OF MAXIMAL GLYCINE RESPONSE, concentration 30 μM): 65%
N[C@@H]1CONC1=O [D-cycloserine] |  |  |  |  | % Change from Control (median latency to step-down) ([3]; 5 mg/kg): +120%; Mean % of Correct Choice ([4]; with scopolamine, 1/3 mg/kg (scopolamine/drug)): 59%; Mean % of Correct Choice ([4]; with scopolamine, 1/10 mg/kg (scopolamine/drug)): 61%
CC(=O)c1cccn1NC(=O)CN [N-(2-Acetyl-1H-pyrrol-1-yl)-2-aminoacetamide Hydrochloride] | 22.5 | 1.3 |  |  | Emax at 10 µM [2, 5]: 71%
CN1[C@@H]2C[C@@H](OC(=O)[C@H](CO)c3ccccc3)C[C@H]1[C@@H]1O[C@@H]12 [Scopolamine] |  |  |  |  | choice accuracy (overall responding at chance levels) ([4]; scopolamine 1 mg/kg, 30 min pretreatment): 50%; Mean % of Correct Choice ([4]; scopolamine alone 1 mg/kg): 45%
NCC(=O)O [glycine] |  |  |  |  | potentiation of the maximal effect of NMDA on [3H]TCP binding (factor) (NMDA receptor): 1.7
